PubChem BioAssay AID743146 (Broad Institute, 2013)
Activity calls are given as the source filed them.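 Rule for the calls: active = fitted half-maximal potency for cell killing at or below the highest valid dose tested for that sample; inconclusive = flat curve with 30 to 70% viability loss, or unreliable fit; inactive = the rest.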

Test system: not listed separately
Experiment: A549 cell cytotoxicity, dose response, cytotoxicity control, CellTiter-Glo luminescence, dry powder, set 3 (AID 743146)
Conditions: A549 viability, CellTiter-Glo ATP luminescence, 72 h; at 26 µM (top of the series)

| SMILES | activity change, negative = cytotoxicity |
| --- | --- |
| CC(C)(C)OC(=O)NCCC(=O)N[C@@H]1CCCc2ccccc21 | 6.05% (inactive) |
| CC(NC(=O)CCNC(=O)c1ccc(Cl)cc1)c1ccc2c(c1)OCO2 (stereo not drawn) | 7.31% (inactive) |
| CC(NC(=O)CCNC(=O)c1ccc(Cl)cc1)c1ccc(F)cc1 (stereo not drawn) | 1.56% (inactive) |
| O=C(CCn1cnc2ccccc2c1=O)NC1CCCc2ccccc21 (stereo not drawn) | -2.5% (inactive) |
| O=C(CNC(=O)c1ccc(OC(F)(F)F)cc1)N[C@@H]1CCCc2ccccc21 | 8.39% (inactive) |
| COc1ccccc1C(=O)NCCC(=O)NC1CCCc2ccccc21 (stereo not drawn) | 5.71% (inactive) |
| O=C(CCNC(=O)c1ccc(Cl)cc1)N[C@@H]1CCc2ccccc21 | 0.571% (inactive) |
| CC(NC(=O)C1CCCN(C(=O)c2ccc(Cl)cc2)C1)c1ccccc1 (stereo not drawn) | 5.97% (inactive) |
| O=C(CCCNC(=O)c1ccc(Cl)cc1)N[C@@H]1CCCc2ccccc21 | -5.3% (inactive) |
| O=C(CCCNC(=O)c1ccc(C(F)(F)F)cc1)N[C@@H]1CCCc2ccccc21 | -7.77% (inactive) |
| O=C(CCNC(=O)c1ccccc1)N[C@@H]1CCCc2ccccc21 | -10.3% (inactive) |
| O=C(CCNC(=O)c1ccc(Cl)cc1)NC1CCCCC1 | 8.46% (inactive) |
| O=C(NC1CCc2ccccc21)C1CCCN(C(=O)c2ccc(Cl)cc2)C1 (stereo not drawn) | -1.86% (inactive) |
| O=C(Cc1ccc(Cl)cc1)NCCC(=O)N[C@@H]1CCCc2ccccc21 | -2.28% (inactive) |
| C[C@@H](NC(=O)CCNC(=O)c1ccc(Cl)cc1)c1ccccc1 | -3.03% (inactive) |
| CC(CC(=O)NC1CCCc2ccccc21)NC(=O)c1ccccc1 (stereo not drawn) | 0.372% (inactive) |

| SMILES | activity change, negative = cytotoxicity |
| --- | --- |
| O=C(CNC(=O)c1ccc(Cl)c(Cl)c1)N[C@@H]1CCCc2ccccc21 | -1.02% (inactive) |
| O=C(CCNC(=O)c1ccccc1Cl)NC1CCCc2ccccc21 (stereo not drawn) | -2% (inactive) |
| NCCC(=O)N[C@@H]1CCCc2ccccc21 | 11.5% (inactive) |
| CN(C(=O)CCNC(=O)c1ccc(F)cc1F)C1CCCc2ccccc21 (stereo not drawn) | 8.93% (inactive) |
| O=C(CCCNC(=O)c1ccc(Cl)c(Cl)c1)N[C@@H]1CCCc2ccccc21 | -2.59% (inactive) |
| O=C(CCCNC(=O)c1ccc(OC(F)(F)F)cc1)N[C@@H]1CCCc2ccccc21 | 4.74% (inactive) |
| CC(=O)NCCC(=O)N[C@@H]1CCCc2ccccc21 | 4.17% (inactive) |
| CC(C)(C)OC(=O)NCCC(=O)N[C@H]1CCCc2ccccc21 | -0.649% (inactive) |
| O=C(CNC(=O)c1ccc(C(F)(F)F)cc1)N[C@@H]1CCCc2ccccc21 | 11% (inactive) |
| O=C(NC1CCOc2ccccc21)C1CCCN(C(=O)c2ccc(Cl)cc2)C1 (stereo not drawn) | 11.1% (inactive) |
| CC(c1ccccc1)N(C)C(=O)CCNC(=O)c1ccc(Cl)cc1 (stereo not drawn) | 14% (inactive) |
| COc1ccccc1C(C)NC(=O)CCNC(=O)c1ccc(Cl)cc1 (stereo not drawn) | 10% (inactive) |
| O=C(CCNC(=O)c1ccc(F)cc1)N[C@@H]1CCCc2ccccc21 | -10.3% (inactive) |
| Cc1cccc(C(=O)NCCC(=O)NC2CCCc3ccccc32)c1 (stereo not drawn) | 9.52% (inactive) |
| O=C(CNC(=O)c1ccc(Cl)cc1)N[C@@H]1CCCc2ccccc21 | -3.21% (inactive) |
| CC(CC(=O)N(C)C1CCCc2ccccc21)NC(=O)c1ccccc1 (stereo not drawn) | -7.34% (inactive) |

Test system: A549 viability, CellTiter-Glo ATP luminescence, 72 h
Experiment: as above
Conditions: not given

| SMILES | AC50 |
| --- | --- |
| O=C(CCNC(=O)c1ccc(Cl)cc1)NC1CCCc2ccccc21 (stereo not drawn) | 26 µM |
